# Measured values: paper PMC9572513, “Novel Unsymmetric 3,5-Bis(benzylidene)-4-piperidones That Display Tumor-Selective Toxicity” (Molecules, 2022)
# Structures can show the parent of a compound that is named as a salt. Where two headings read alike, the source gives them in different places.
# Key:
# [1] = Average over HGF, HPLF and HPC non-malignant oral cells; format: cell-based, human; conditions: human, HPLF and HPC non-malignant oral cells (average), average of HGF
# Method: (§1) The method for evaluating 2a–f and 3a–e against human oral squamous cell carcinoma (OSCC) cell lines (Ca9-22, HSC-2, HSC-3, HSC-4) and human non-malignant oral cells [human gingival fibroblast (HGF), human periodontal ligament fibroblast (HPLF), and human pulp cell (HPC)] have been reported previously, except the length of time of this bioassay was extended from 24 h to 48 h. In brief, different quantities of the compounds were incubated with the cells in Dulbecco’s modified eagle medium (DMEM), which was supplemented with 10% FBS and antibiotics. The cell viability was determined by the 3-(4,5-dimethylthiazol-2-yl)-2,5-diphenyl-2H-tetrazolium bromide (MTT) method as summarized previously (Figure 4).
# [2] = system: CRL1790 non-malignant colon cells; assay: Cytotoxicity against CRL1790 non-malignant colon cells; format: cell-based; conditions: Homo sapiens, 48 h
# Method: (§2) The culture medium was supplemented with 10% heat-inactivated fetal bovine serum (FBS) and 1% penicillin–streptomycin antibiotics. The time of the bioassays was 48 h. The determinations were undertaken in triplicate on three different occasions.
# [3] = system: Ca9-22, HSC-2, HSC-3, and HSC-4 squamous cell carcinoma cell lines; assay: Average over Ca9-22, HSC-2, HSC-3 and HSC-4 OSCC cell lines; format: cell-based, human; conditions: for CC50: read-out: Average CC50; for Average SI: average of SI for four OSCC cell lines
# Method: as §1
# HL-60 cells = assay: Differential DNA staining (DNS) cytotoxicity assay, HL-60 cells; format: cell-based; conditions: Homo sapiens
# Method: (§3) The method used for generating the data of human acute lymphocytic leukemia (CEM) and human acute promyelocytic leukemia (HL-60) cells in Table 4 has been described previously. In brief, the cells were cultured in media supplemented with 10% FBS and antibiotics. […] The CC50 values of the compounds listed in Table 4 were obtained by linear interpolation equations [28, 29].
# [4] = system: HSC-2 squamous cell carcinoma cells; assay: MTT cytotoxicity against HSC-2 squamous cell carcinoma; format: cell-based, human; conditions: for CC50: Homo sapiens, read-out: HSC-2 CC50; for HSC-2 SI: average CC50 HGF/HPLF/HPC divided by CC50 HSC-2
# Method: as §1
# [5] = system: HCT116 colon cancer cells; assay: Cytotoxicity against HCT116 colon cancer cells; format: cell-based, human; conditions: for IC50: Homo sapiens, HCT-116, 48 h, 48 h; for HCT116 SI (selectivity index): IC50 CRL1790 / IC50 HCT116
# Method: as §2
# CEM cells = assay: Differential DNA staining (DNS) cytotoxicity assay, CEM cells; format: cell-based; conditions: Homo sapiens, CCRF-CEM
# Method: as §3
# [6] = MTT cytotoxicity against human gingival fibroblast (HGF); format: cell-based; conditions: human, human gingival fibroblasts (HGF), non-malignant oral cells
# Method: as §1
# [7] = MTT cytotoxicity against human periodontal ligament fibroblast (HPLF); format: cell-based; conditions: human, human periodontal ligament fibroblasts (HPLF), non-malignant oral cells
# Method: as §1
# [8] = system: Ca9-22 squamous cell carcinoma cells; assay: MTT cytotoxicity against Ca9-22 squamous cell carcinoma; format: cell-based, human; conditions: for CC50: Homo sapiens, read-out: Ca9-22 CC50; for Ca9-22 SI: average CC50 HGF/HPLF/HPC divided by CC50 Ca9-22
# Method: as §1
# [9] = system: HCT116 and HT29 colon cancer cells; assay: Average over HCT116 and HT29 colon cancer cells; format: cell-based, human; conditions: for IC50: Homo sapiens, average of HCT116 and HT29, unit printed only for the single cell-line columns; for Average SI: average of SI for HCT116 and HT29; for PSE (potency-selectivity expression): reciprocal of average IC50 x average SI x 100, colon cells
# Method: as §2
# [10] = system: HSC-4 squamous cell carcinoma cells; assay: MTT cytotoxicity against HSC-4 squamous cell carcinoma; format: cell-based, human; conditions: for CC50: Homo sapiens, read-out: HSC-4 CC50; for HSC-4 SI: average CC50 HGF/HPLF/HPC divided by CC50 HSC-4
# Method: as §1
# [11] = system: HSC-3 squamous cell carcinoma cells; assay: MTT cytotoxicity against HSC-3 squamous cell carcinoma; format: cell-based, human; conditions: for CC50: Homo sapiens, read-out: HSC-3 CC50; for HSC-3 SI: average CC50 HGF/HPLF/HPC divided by CC50 HSC-3
# Method: as §1
# [12] = MTT cytotoxicity against human pulp cell (HPC); format: cell-based; conditions: human, human pulp cells (HPC), non-malignant oral cells
# Method: as §1
# HT29 colon cancer cells = assay: Cytotoxicity against HT29 colon cancer cells; format: cell-based, human; conditions: for IC50: 48 h; for HT29 SI (selectivity index): IC50 CRL1790 / IC50 HT29
# Method: as §2
# [13] = Homo sapiens, average of four OSCC cell lines
SMILES,IC50 [9] [µM],CC50 at 48 h [1] [µM],IC50 [2] [µM],"CC50 [3, 13] [µM]",Average SI [3],"CC50 ([4]; HSC-2, 48 h, MTT) [µM]",HSC-2 SI [4],CC50 at 48 h [6] [µM],CC50 at 48 h [7] [µM],"CC50 ([8]; Ca9-22, 48 h, MTT) [µM]",Ca9-22 SI [8],Average SI [9],PSE (potency-selectivity expression) [9],"CC50 ([10]; HSC-4, 48 h, MTT) [µM]",HSC-4 SI [10],"CC50 ([11]; HSC-3, 48 h, MTT) [µM]",HSC-3 SI [11],CC50 at 48 h [12] [µM],"IC50 (HT29 colon cancer cells; Homo sapiens, HT-29, 48 h) [µM]",HT29 SI (selectivity index) (HT29 colon cancer cells),further results
"COc1ccc(/C=C2\CNC/C(=C\c3ccc(O)c(CN4CCCC4)c3)C2=O)cc1OC [Compound 2c, 3-[3-(1-Pyrrolidinylmethyl)-4-hydroxybenzylidene]-5-(3,4-dimethoxybenzylidene)-4-piperidone dihydrochloride]",2.51,53.6,26.4 ± 0.28,12,4.69,14,3.83,68.6,48.9,8.2,6.54,12.2,486,14.1,3.80,11.7,4.58,43.3,1.57 ± 0.54,16.8,"CC50 (HL-60 cells; HL-60, 24 h, read-out: CC50 HL-60 Cells 24 h): > 10 µM; CC50 (HL-60 cells; HL-60, 48 h, read-out: CC50 HL-60 Cells 48 h): > 10 µM; IC50 [5]: 3.44 ± 0.42 µM; HCT116 SI (selectivity index) [5]: 7.67; CC50 (CEM cells; 24 h, read-out: CC50 CEM Cells 24 h): > 10 µM; CC50 (CEM cells; 48 h, read-out: CC50 CEM Cells 48 h): 7.92 ± 0.98 µM"
"COc1ccc(/C=C2\CNC/C(=C\c3ccc(O)c(CN4CCCCC4)c3)C2=O)cc1OC [Compound 2d, 3-[3-(1-Piperidinylmethyl)-4-hydroxybenzylidene]-5-(3,4-dimethoxybenzylidene)-4-piperidone dihydrochloride]",0.5,< 3.77,23.5 ± 0.26,< 1,7.47,0.61,<6.18,7,2.7,0.42,<8.98,47.9,9580,0.75,–,0.39,<9.67,< 1.6,< 1,43.5,CC50 ([3]; average of four OSCC cell lines): 0.54 µM; PSE (potency-selectivity expression) ([3]; reciprocal of average CC50 (OSCC) x average SI x 100): > 1000; IC50 (HT29 colon cancer cells): 0.54 ± 0.17 µM
"COc1cccc2c1C(=O)c1c(O)c3c(c(O)c1C2=O)C[C@@](O)(C(=O)CO)C[C@@H]3O[C@H]1C[C@H](N)[C@H](O)[C@H](C)O1 [DXR, doxorubicin, reference compound]",–,> 10,–,0.23,>48.4,0.2,>50.0,> 10,> 10,0.33,>30.3,–,–,0.14,>71.4,0.24,>41.7,> 10,–,–,–
"N[C@@H](Cc1ccc(N(CCCl)CCCl)cc1)C(=O)O [MPN, melphalan, reference compound]",–,> 200,–,–,>11.3,–,>11.8,> 200,> 200,–,>4.68,–,–,–,>19.2,–,>9.62,> 200,–,–,"CC50 ([3]; Homo sapiens): 22.7 µM; CC50 ([4]; HSC-2, 48 h): 17 µM; CC50 ([8]; Ca9-22, 48 h): 42.7 µM; CC50 ([10]; HSC-4, 48 h): 10.4 µM; CC50 ([11]; HSC-3, 48 h): 20.8 µM"

# Now from value to compound, other results behind:
IC50 [9] [µM],SMILES,CC50 at 48 h [1] [µM],IC50 [2] [µM],"CC50 [3, 13] [µM]",Average SI [3],"CC50 ([4]; HSC-2, 48 h, MTT) [µM]",HSC-2 SI [4],CC50 at 48 h [6] [µM],CC50 at 48 h [7] [µM],"CC50 ([8]; Ca9-22, 48 h, MTT) [µM]",Ca9-22 SI [8],Average SI [9],PSE (potency-selectivity expression) [9],"CC50 ([10]; HSC-4, 48 h, MTT) [µM]",HSC-4 SI [10],"CC50 ([11]; HSC-3, 48 h, MTT) [µM]",HSC-3 SI [11],CC50 at 48 h [12] [µM],"IC50 (HT29 colon cancer cells; Homo sapiens, HT-29, 48 h) [µM]",HT29 SI (selectivity index) (HT29 colon cancer cells),further results
3.56,"COc1ccc(/C=C2\CNC/C(=C\c3ccc(O)c(CN4CCOCC4)c3)C2=O)cc1OC [Compound 2e, 3-[3-(4-Morpholinomethyl)-4-hydroxybenzylidene]-5-(3,4-dimethoxybenzylidene)-4-piperidone dihydrochloride]",> 200,27.4 ± 0.42,69.3,3.12,88.5,>2.26,> 200,> 200,41.8,>4.79,7.72,217,–,–,73.2,>2.73,> 200,3.75 ± 0.78,7.31,IC50 [5]: 3.37 ± 0.68 µM; HCT116 SI (selectivity index) [5]: 8.13
0.9,COc1ccc(/C=C2\CNC/C(=C\c3ccc(O)c(CN4CCN(C)CC4)c3)C2=O)cc1 [Compound 3c],5.5,13.2 ± 0.36,1,5.81,1.1,5.00,8.8,4.9,0.66,8.33,15.1,1678,1.18,4.66,1.05,5.24,2.8,0.76 ± 0.26,17.4,IC50 [5]: 1.04 ± 0.48 µM; HCT116 SI (selectivity index) [5]: 12.7
2.31,Cc1ccc(/C=C2\CNC/C(=C\c3ccc(O)c(CN4CCN(C)CC4)c3)C2=O)cc1 [Compound 3d],10.2,22.6 ± 0.59,1.93,5.57,2.2,4.64,14.6,10.1,1.3,7.85,18.8,814,2.29,4.45,1.91,5.34,6,0.71 ± 0.29,31.8,IC50 [5]: 3.91 ± 1.69 µM; HCT116 SI (selectivity index) [5]: 5.78
8.97,"O=c1[nH]cc(F)c(=O)[nH]1 [Compound 5-FU, 5-fluorouracil, reference compound]",> 1000,17.6 ± 0.82,> 240,>35.0,359,>2.79,> 1000,> 1000,141,>7.09,3.10,34.6,7.8,>128,450,>2.22,> 1000,14.4 ± 0.65,1.22,IC50 [5]: 3.54 ± 0.72 µM; HCT116 SI (selectivity index) [5]: 4.97
